“Also recorded” adds a separate entry of the source.
Key:
Type in all cases: cell-based
hypoxic MCF7 cells = assay: Chronogenic survival assay in hypoxic versus normoxic MCF7 cells; details: hypoxia vs normoxia, 24 hours treatment
Experimental: (§1) A number of cancer cells lines were tested for effectness of (−)-lomaiviticin A or MK7-206. These cell lines are DNA damage response deficient cells (DDR-deficient cancer cells, indicated in FIGS. 16-24) or hypoxic cells (indicated in FIG. 25). The indicated cells were seeded at 500 cells per well in 6-23ll dishes and treated with various concentrations of (−)-lomaiviticin A at the indicated concentrations indicated in FIGS. 16-25 for a period of 24 hours, after which time the media containing the inhibitor was removed and replaced with fresh media. Colonies were fixed with 0.9% saline solution and stained with crystal violet 8-14 days later. Colonies consistent of greater than 50 cells were counted. Experiments utilizing MK7-206 for the cell lines which are presented in attached FIG. 28 (Table 2) and FIG. 30 (Table 4) were also conducted (at higher concentrations than for (−)lomaiviticin A).

pATR = assay: Western blotting of treated MCF7 cells, pATR; details: 24 hour treatment, listed as LA
Experimental: (§2) MCF-7 are seeded into 6-well dishes and treated with various doses of (−)-lomaiviticin A (LA), in the absence and presence of ionizing radiation (IR) at a dose rate of 2.4295 Gy/min (2 Gy, X-Ray) for 24 hour. After treatment, the cells were harvested for lysis in AZ lysis buffer ([…] Tris, 250 mM NaCl, 1% Igepal, 0.1% SDS, 5 mM EDTA, 10 mM Na4P2O7, 10 mM NaF) containing protease and phosphatase inhibitors. Western blotting was performed (FIG. 26).
(§3) Primary antibodies used were: mouse monoclonal anti-Ser1981-pATM (10H11.E12, Millipore, Temecula, Calif.), mouse monoclonal anti-vinculin (SPM227, Abcam, Cambridge, Mass.), rabbit polyclonal anti-Ser428-pATR (Cell Signaling, Danvers, Mass.), rabbit polyclonal anti-Thr68-pCHK2 (Cell Signaling), rabbit monoclonal anti-CHK2 (D9C6, Cell Signaling), rabbit monoclonal anti-Ser345-pCHK1 (Cell Signaling), and rabbit monoclonal anti-CHK1 (E250, Millipore).
(§4) Proteins were visualized with horseradish peroxidase-conjugated anti-mouse and anti-rabbit immunoglobulin G (Thermo Scientific, Rockford, Ill.) and the SuperSignal West Pico Chemiluminescent Substrate detection system (Thermo Scientific).

pCHK1 = assay: Western blotting of treated MCF7 cells, pCHK1; details: 24 hour treatment, listed as LA
Experimental: as §2, §3, §4

hypoxic A549 cells = assay: Chronogenic survival assay in hypoxic versus normoxic A549 cells; details: hypoxia vs normoxia, 24 hours treatment
Experimental: as §1

pATM = assay: Western blotting of treated MCF7 cells, pATM; details: 24 hour treatment
Experimental: as §2, §3, §4

[1] = system: DDR-deficient cancer cells (BRCA2, pten, KU80 and DNApk); assay: Chronogenic survival assay in DNA damage response deficient cancer cell lines
Experimental: as §1

pCHK2 = assay: Western blotting of treated MCF7 cells, pCHK2; details: 24 hour treatment
Experimental: as §2, §3, §4

Substance: (−)-lomaiviticin A
- sensitivity of hypoxic cells compared with normoxic cells (hypoxic MCF7 cells): more sensitive
- change in pATR (western blot) (pATR): no increase
- change in pCHK1 (western blot) (pCHK1): no increase
- sensitivity of hypoxic cells compared with normoxic cells (hypoxic A549 cells): more sensitive
- change in pATM (western blot) (pATM): increase
- sensitivity of DDR-deficient cells to the compound ([1]; DDR-deficient (BRCA2, pten, KU80, DNApk) cells, 24 hours treatment, colonies stained 8-14 days later): more sensitive; also recorded: particularly susceptible
- efficacy against cell lines in which DNA damage repair systems are deficient or down regulated ([1]; FIGS. 27-30): excellent efficacy
- change in pCHK2 (western blot) (pCHK2): increase

Reference: US9346846B1, “Anti-cancer compounds and methods for treating cancer” (YALE UNIVERSITY, priority 2013, dated 2016)
